From patent US20230002387A1, “2-AMINO-S6-SUBSTITUTED THIOPURINE COMPOUNDS AS INHIBITORS OF THE ENPP1 PROTEIN” (ATEN PORUS LIFESCIENCES PVT. LTD., priority 2019, published 2023)

Assays:
ENPP1 = target: T1, ENPP1 (Homo sapiens, UniProt P22413); assay: Capillary electrophoresis-based NPP assay with ATP as a substrate (ENPP1 inhibition, Ki); type: biochemical; details: Ki from IC50 by Cheng-Prusoff, 400 μM ATP
T1 sequence (P22413 1-925): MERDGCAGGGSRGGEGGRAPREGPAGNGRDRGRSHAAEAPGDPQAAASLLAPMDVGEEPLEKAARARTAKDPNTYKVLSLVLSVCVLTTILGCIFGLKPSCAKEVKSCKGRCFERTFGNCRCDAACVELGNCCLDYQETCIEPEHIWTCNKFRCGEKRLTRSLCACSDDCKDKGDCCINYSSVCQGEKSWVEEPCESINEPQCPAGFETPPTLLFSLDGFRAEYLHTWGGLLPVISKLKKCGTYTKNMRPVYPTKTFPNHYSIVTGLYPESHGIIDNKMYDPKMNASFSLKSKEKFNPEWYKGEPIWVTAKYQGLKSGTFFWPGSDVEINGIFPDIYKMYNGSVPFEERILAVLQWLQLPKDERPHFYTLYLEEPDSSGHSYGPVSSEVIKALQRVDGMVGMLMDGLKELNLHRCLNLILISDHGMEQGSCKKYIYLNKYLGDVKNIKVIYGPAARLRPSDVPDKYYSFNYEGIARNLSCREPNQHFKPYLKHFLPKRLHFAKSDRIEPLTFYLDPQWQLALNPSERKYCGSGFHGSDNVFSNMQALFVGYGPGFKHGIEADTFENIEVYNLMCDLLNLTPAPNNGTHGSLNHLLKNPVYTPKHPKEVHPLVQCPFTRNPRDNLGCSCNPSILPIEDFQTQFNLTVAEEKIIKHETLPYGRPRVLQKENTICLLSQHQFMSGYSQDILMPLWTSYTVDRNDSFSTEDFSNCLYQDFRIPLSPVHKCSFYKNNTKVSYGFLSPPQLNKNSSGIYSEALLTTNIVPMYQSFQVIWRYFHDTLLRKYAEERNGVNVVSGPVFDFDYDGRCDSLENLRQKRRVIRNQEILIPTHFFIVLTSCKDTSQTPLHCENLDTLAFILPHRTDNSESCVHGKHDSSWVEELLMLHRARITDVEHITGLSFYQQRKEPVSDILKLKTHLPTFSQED
Experimental: Here, a Capillary Electrophoresis based method was used to determine the IC50 values for ENPP1 Inhibitors for ENNP1 protein.
The inhibitors synthesized were assessed for ENPP1 inhibitory potency against the natural substrate ATP. The enzyme inhibition assays were performed in 10 mM 2-(N-cyclohexylamino)-ethanesulfonic acid (CHES) buffer (pH 10.0) including 1 mM MgCl2, 2 mM CaCl2), and 400 μM of ATP, with different inhibitor concentrations. The reaction mixture was incubated with 20 ng human NPP1 at 37° C. for 30 min in a final volume of 100 μL, and the reactions were stopped by heating at 90° C. for 3 min. Finally, the reaction mixtures were directly measured by capillary electrophoresis (CE). The CE instrumentation and operating conditions were as follows: P/ACE MDQ capillary electrophoresis system (Beckman Instruments, Fullerton, Calif., USA) with a DAD detection system, polyacrylamide-coated capillaries of 40 cm effective length×[…] (id) obtained from CS Chromatographie GmbH (Langerwehe, Germany), 50 mM phosphate buffer (pH 6.5) as running buffer, electrokinetic injection (−6 kV, 60 s), separation voltage of −15 kV. The amounts of AMP produced were measured at 260 nm. Data collection and peak area analysis were performed by 32 Karat software obtained from Beckman Coulter (Fullerton, Calif., USA).
The IC50 values of test compounds were calculated by plotting data in the program Prism 5.0, and the Ki values were calculated from the IC50 values with the Cheng-Prusoff equation (Tables 2-4).

LLC1 syngeneic tumor = assay: In vivo efficacy in LLC1 syngeneic tumor model (murine Lewis lung carcinoma); parameters: species or system C57BL/6 mice; details: for % TGI (vs Control): Day 15; for Tumor volume (mm^3), Mean, Day 15: SE in next cell; for Reduction of tumor volume compared among the dosing groups of the compound: IV dosing in combination with anti-PD-1 antibody (FIG. 4, 7, 10); for Effect on tumor volume in the murine Lewis lung carcinoma model: PO and IV dosing, alone or in combination with anti-PD-1 antibody (FIG. 4, 7, 10); for Tumor volume (mm^3), Mean ± SE, Day 1: baseline at start of treatment
Experimental: The anti-tumor efficacy of Compound 155, 173 and 174 was evaluated in combination with an anti-PD-1 antibody (check point inhibitor) in LLC1, a syngeneic tumor model. Compounds were administered orally at a dose of 100 mg/kg, once daily. IV doses of the compound were administered at 10 mg/kg dose, twice weekly or Q3D (Compound 155 at 2 mg/Kg IV). Anti-PD-1 antibody was administered at a dose of 200 μg/animal via IP route on days 1, 5 and 9 (Table 5).
C57BL/6 mice (female, 7-8 weeks of age) were implanted subcutaneously with 0.2×10^6 LLC1 cells (ATCC® CRL-1642^Tm) to evaluate tumor growth in a murine Lewis lung carcinoma model. Tumor-bearing animals were randomized into different treatment groups of 8 animals based on tumor size criteria of about 50-60 mm^3 and dosed according to the schedule in Table 5.
Dosing protocol: The frequency for oral administration was once daily and IV administration was twice weekly for two weeks; anti-PD-1 antibody was administered via IP route on Days 1, 5 and 9.
Tumor measurement: Tumor growth was measured thrice weekly using a digital Vernier caliper. Tumor volume was calculated as: Tumor Volume (TV)=[Length (L)×Width (W)2]/2 (where length is the largest diameter and width is the smallest diameter of the tumor)
Efficacy Evaluation: Tumor growth inhibition (TGI) was calculated as: […]
Data Analysis: Statistical analysis of the data was performed by One-way ANOVA followed by Dunnett's test using GraphPad Prism (version 5.03).

[1] = IV 2 mg/kg twice weekly + anti-PD-1 200 μg/animal IP Q4D x 3
[2] = PO 100 mg/kg QD x 14 + anti-PD-1 200 μg/animal IP Q4D x 3
[3] = IV 10 mg/kg twice weekly + anti-PD-1 200 μg/animal IP Q4D x 3
[4] = IV 10 mg/kg twice weekly, alone

## Nc1nc(SCC(=O)Nc2ccc(O)c(C(=O)O)c2)c2[nH]cnc2n1 [Compound 155]
ENPP1; bin of Table 2
  Ki: ≤ 0.1 µM
LLC1 syngeneic tumor; [1]
  % TGI (vs Control): 57%
  Tumor volume (mm^3), Mean, Day 15: 787 mm^3
LLC1 syngeneic tumor; IV 2 mg/kg twice weekly, alone
  % TGI (vs Control): 47%
  Tumor volume (mm^3), Mean, Day 15: 956 mm^3
LLC1 syngeneic tumor
  Reduction of tumor volume compared among the dosing groups of the compound: greatest reduction
  Effect on tumor volume in the murine Lewis lung carcinoma model: reduced tumor volume
LLC1 syngeneic tumor; [2]
  % TGI (vs Control): 44%
  Tumor volume (mm^3), Mean, Day 15: 1008 mm^3
LLC1 syngeneic tumor; PO 100 mg/kg QD x 14, alone
  % TGI (vs Control): 33%
  Tumor volume (mm^3), Mean, Day 15: 1191 mm^3
LLC1 syngeneic tumor; IV 2 mg/kg + anti-PD-1 group
  Tumor volume (mm^3), Mean ± SE, Day 1: 50 ± 1.4 mm^3
LLC1 syngeneic tumor; IV 2 mg/kg alone group
  Tumor volume (mm^3), Mean ± SE, Day 1: 51 ± 2.0 mm^3
LLC1 syngeneic tumor; PO 100 mg/kg + anti-PD-1 group
  Tumor volume (mm^3), Mean ± SE, Day 1: 50 ± 1.4 mm^3
LLC1 syngeneic tumor; PO 100 mg/kg alone group
  Tumor volume (mm^3), Mean ± SE, Day 1: 50 ± 1.4 mm^3

## CCC(Sc1nc(N)nc2nc[nH]c12)C(=O)Nc1ccc(O)c(OC)c1 (stereo not shown) [Compound 174]
LLC1 syngeneic tumor; [3]
  % TGI (vs Control): 57%
  Tumor volume (mm^3), Mean, Day 15: 778 mm^3
LLC1 syngeneic tumor; [4]
  % TGI (vs Control): 48%
  Tumor volume (mm^3), Mean, Day 15: 930 mm^3
LLC1 syngeneic tumor
  Reduction of tumor volume compared among the dosing groups of the compound: greatest reduction
LLC1 syngeneic tumor; [2]
  % TGI (vs Control): 60%
  Tumor volume (mm^3), Mean, Day 15: 724 mm^3
LLC1 syngeneic tumor; PO 100 mg/kg QD x 14, alone
  % TGI (vs Control): 52%
LLC1 syngeneic tumor; IV 10 mg/kg + anti-PD-1 group
  Tumor volume (mm^3), Mean ± SE, Day 1: 50 ± 1.2 mm^3
LLC1 syngeneic tumor; IV 10 mg/kg alone group
  Tumor volume (mm^3), Mean ± SE, Day 1: 50 ± 1.1 mm^3
LLC1 syngeneic tumor; PO 100 mg/kg + anti-PD-1 group
  Tumor volume (mm^3), Mean ± SE, Day 1: 50 ± 1.2 mm^3
LLC1 syngeneic tumor; PO 100 mg/kg alone group
  Tumor volume (mm^3), Mean ± SE, Day 1: 50 ± 1.3 mm^3

## COc1nc(NC(=O)[C@@H](Cc2ccccc2)Sc2nc(N)nc3nc[nH]c23)ncc1Br [Compound 552]
ENPP1; bin of Table 2
  Ki: ≤ 0.1 µM

## CC[C@H](Sc1nc(N)nc2nc[nH]c12)C(=O)Nc1ncc(Br)c(OC)n1 [Compound 509]
ENPP1; bin of Table 2
  Ki: ≤ 0.1 µM

## CC(C)Oc1nc(NC(=O)C(C)(C)Sc2nc(N)nc3nc[nH]c23)ncc1Br [Compound 543]
ENPP1; bin of Table 2
  Ki: ≤ 0.1 µM

## CC[C@@H](Sc1nc(N)nc2nc[nH]c12)C(=O)Nc1ncc(Br)c(OC)n1 [Compound 508]
ENPP1; bin of Table 2
  Ki: ≤ 0.1 µM

## CC[C@H](Sc1nc(N)nc2nc[nH]c12)C(=O)Nc1ccc(OC)c(OC)n1 [Compound 472]
ENPP1; bin of Table 2
  Ki: ≤ 0.1 µM

## COc1ccc(CNC(=O)CSc2nc(N)nc3nc[nH]c23)cc1OC [Compound 105]
ENPP1; bin of Table 4
  Ki: ≥ 1 µM

## COc1ccc(NC(=O)CSc2nc(N)nc3nc[nH]c23)cc1OC [Compound 46, 2-((2-amino-7H-purin-6-yl)thio)-N-(3,4-dimethoxyphenyl)acetamide]
ENPP1; bin of Table 2
  Ki: ≤ 0.1 µM

## Nc1nc(SCC(=O)Nc2ccc3ncsc3c2)c2[nH]cnc2n1 [Compound 181]
ENPP1; bin of Table 2
  Ki: ≤ 0.1 µM

## CC[C@H](Sc1nc(N)nc2nc[nH]c12)C(=O)Nc1ncc(Cl)c(OC)n1 [Compound 609]
ENPP1; bin of Table 2
  Ki: ≤ 0.1 µM

## CCOc1nc(NC(=O)[C@H](CC)Sc2nc(N)nc3nc[nH]c23)ncc1Cl [Compound 677]
ENPP1; bin of Table 2
  Ki: ≤ 0.1 µM

## COc1ccc(NC(=S)CSc2nc(N)nc3nc[nH]c23)cc1OC [Compound 355]
ENPP1; bin of Table 2
  Ki: ≤ 0.1 µM

## COc1ccc(NC(=O)CSc2ncnc3[nH]cnc23)cc1OC [Compound 45]
ENPP1; bin of Table 4
  Ki: ≥ 1 µM

## COc1cc(NC(=O)C(C)Sc2nc(N)nc3nc[nH]c23)ccc1O (stereo not shown) [Compound 173]
ENPP1; bin of Table 2
  Ki: ≤ 0.1 µM
LLC1 syngeneic tumor; [3]
  % TGI (vs Control): 53%
  Tumor volume (mm^3), Mean, Day 15: 856 mm^3
LLC1 syngeneic tumor; [4]
  % TGI (vs Control): 48%
  Tumor volume (mm^3), Mean, Day 15: 926 mm^3
LLC1 syngeneic tumor
  Reduction of tumor volume compared among the dosing groups of the compound: greatest reduction
  Effect on tumor volume in the murine Lewis lung carcinoma model: reduced tumor volume
LLC1 syngeneic tumor; [2]
  % TGI (vs Control): 47%
  Tumor volume (mm^3), Mean, Day 15: 945 mm^3
LLC1 syngeneic tumor; PO 100 mg/kg QD x 14, alone
  % TGI (vs Control): 37%
  Tumor volume (mm^3), Mean, Day 15: 1126 mm^3
LLC1 syngeneic tumor; IV 10 mg/kg + anti-PD-1 group
  Tumor volume (mm^3), Mean ± SE, Day 1: 50 ± 1.4 mm^3
LLC1 syngeneic tumor; IV 10 mg/kg alone group
  Tumor volume (mm^3), Mean ± SE, Day 1: 50 ± 1.3 mm^3
LLC1 syngeneic tumor; PO 100 mg/kg + anti-PD-1 group
  Tumor volume (mm^3), Mean ± SE, Day 1: 50 ± 1.4 mm^3
LLC1 syngeneic tumor; PO 100 mg/kg alone group
  Tumor volume (mm^3), Mean ± SE, Day 1: 50 ± 1.4 mm^3

## CCOc1nc(NC(=O)[C@@H](Sc2nc(N)nc3nc[nH]c23)C(C)C)ncc1Br [Compound 681]
ENPP1; bin of Table 2
  Ki: ≤ 0.1 µM

## COc1nc(NC(=O)[C@H](Sc2nc(N)nc3nc[nH]c23)C(C)C)ncc1Br [Compound 514]
ENPP1; bin of Table 2
  Ki: ≤ 0.1 µM

## CCOc1nc(NC(=O)[C@H](CC)Sc2nc(N)nc3nc[nH]c23)ncc1F [Compound 673]
ENPP1; bin of Table 2
  Ki: ≤ 0.1 µM

## COc1nc(NC(=O)[C@H](Cc2ccccc2)Sc2nc(N)nc3nc[nH]c23)ncc1Cl [Compound 554]
ENPP1; bin of Table 2
  Ki: ≤ 0.1 µM

## COc1ccc(NC(=O)Cn2cnc3ncnc(N)c32)cc1OC [Compound 18]
ENPP1; bin of Table 4
  Ki: ≥ 1 µM

## COc1ccnc(NC(=O)[C@H](Sc2nc(N)nc3nc[nH]c23)C(C)C)n1 [Compound 511]
ENPP1; bin of Table 2
  Ki: ≤ 0.1 µM

## Nc1nc(S[C@@H](CCc2ccccc2)C(=O)Nc2ccc(O)c(C(=O)O)c2)c2[nH]cnc2n1 [Compound 485]
ENPP1; bin of Table 2
  Ki: ≤ 0.1 µM
